Paper PMC7699745, “The Search for New Anticonvulsants in a Group of (2,5-Dioxopyrrolidin-1-yl)(phenyl)Acetamides with Hybrid Structure—Synthesis and In Vivo/In Vitro Studies” (International Journal of Molecular Sciences, 2020)
Read-outs that look alike come from different tables or passages of the source.

How the values were obtained:
Na+ channel (site 2) = assay: Radioligand binding, Na+ channel (site 2); details: 10 µM; rat cerebral cortex
Protocol: (§1) Taking into consideration the structural similarities of molecules described in the current manuscript with their chemical prototypes AS-1 and DK-1, the binding studies toward aforementioned molecular targets were performed commercially for several active substances from each subseries (3, 4, 21, 24, 25, 27, 29, and 30). Furthermore, we also tested two other and well-known targets for AEDs, namely, the Cav2.2 (N-type) calcium channel and gamma-aminobutyric acid (GABA)-A receptor. With the aim of excluding potentially dangerous proarrhythmic properties for each compound, their interaction with the potassium (hERG) channel was also tested.
(§2) Binding studies were carried out commercially in Eurofines Laboratories (Poitiers, France). The functional assays were performed in Eurofins Panlabs Discovery Services Taiwan, Ltd. (New Taipei City, Taiwan). All procedures are described elsewhere (for details, see Table S4 in Supplementary Materials).
(§3) Binding studies were carried out commercially in Eurofines Laboratories (Poitiers, France). The
(§4) functional assays were performed in Eurofins Panlabs Discovery Services Taiwan, Ltd. (New Taipei
(§5) City, Taiwan). All procedures are described elsewhere (Table S4).
Table S4. In vitro binding and functional assays. […]

Cav1.2 channel = target: T1, Cav1.2 channel (Rattus norvegicus, UniProt P22002); assay: Radioligand binding, Cav1.2 channel; set-up: inhibition: dose or concentration left out as unconfirmed; details: for inhibition: rat cerebral cortex, read-out: % Inhibition of Control Specific Binding, Cav1.2 Channel (Antagonist Radioligand)
T1 construct: tissue Eurofins (Poitiers, France), contract assay; host or cells: rat cerebral cortex (own knowledge of the vendor's assay)
Protocol: as §1, §2, §3, §4, §5
(§6) Table S4. In vitro binding and functional assays.
(§7) GABA-A receptor (α1,β2,γ2)
(§8) Potassium channel (hERG) 14
(§9) Cav1.2 (h) calcium ion channel cell based antagonist calcium flux assay 16,17

[1] = system: motor coordination of mice; assay: Rotarod test for acute neurological toxicity; details: for Rotarod test, number of mice / number of mice tested: i.p., 100 mg/kg, 0.5 h
[2] = Rotarod test for acute neurological toxicity; details: mouse, in vivo, ip
[3] = system: 6 Hz (32 mA) seizures, mice; assay: Psychomotor 6 Hz (32 mA) seizure model; assay type: in vivo; details: Mus musculus, ip; for responders at 100 mg/kg: 0.5 h, read-out: 6 Hz (32 mA) test, number of mice protected / number of mice tested (converted)
[4] = system: capsaicin-induced nociceptive response, mice; assay: Capsaicin-induced pain model; assay type: in vivo
From the text: Capsaicin activates C polymodal fibers and enhances their firing, which contributes to subsequent hyperalgesia. The molecular mechanism of action of capsaicin is the activation of the nonselective cation channel, transient receptor potential vanilloid-1 (TRPV1), which is localized on nociceptive free nerve endings. That induces the release of proinflammatory neuropeptides such as calcitonin gene-related peptide (CGRP), vasoactive intestinal peptide (VIP), and substance P (SP). The phenomenon of the induction of tissue inflammation by the peripheral nervous system is called neurogenic inflammation, and it is involved in the development of inflammatory and neuropathic pain. AEDs such as gabapentin, topiramate, or lamotrigine decrease capsaicin-induced nocifensive behavior [25].
The experimental groups consisted of 6–12 adult male Albino Swiss mice (CD-1, 18–25 g). Each animal was tested only once. […]
The experimental in vivo procedures were previously reported for the formalin test; compounds 4 and 30 were tested in three doses—40, 80, 120 mg/kg (4), and 20, 40, 80 mg/kg (30). […] The in vivo procedure for the model of capsaicin-induced nociception was previously reported; the animals were pretreated with vehicle (10 mL/kg, negative control) and the dose–response of investigated compounds was evaluated at 40, 80, 120 mg/kg (4), and 20, 40, 80 mg/kg (30). […]

CYP2C9 = CYP2C9 (Homo sapiens, UniProt P11712); assay: Luminescent CYP2C9 P450-Glo assay; details: 10 and 25 µM
[5] = target: T2, GABA-A receptor (α1,β2,γ2) (Homo sapiens, UniProt P14867+P47870); assay: Radioligand binding, GABA-A receptor; set-up: dose or concentration left out as unconfirmed; details: rat cerebral cortex; read-out: % Inhibition of Control Specific Binding, GABA-A Receptor (α1,β2,γ2) (Agonist Radioligand)
T2 construct: Eurofins (Poitiers, France), contract assay
Protocol: as §1, §2, §3, §4, §5, §6, §7, §8, §9

[6] = Parallel artificial membrane permeability assay (PAMPA)
Protocol: Passive diffusion was tested in the parallel artificial membrane permeability assay (PAMPA) and expressed as the permeability coefficient (Pe). A highly permeable compound, caffeine (CFN), and a poorly permeable compound, norfloxacin (NFX), were used as the references.
Precoated PAMPA Plate System Gentest™ was provided by Corning, (Tewksbury, MA, USA).

MES seizures, mice = assay: Maximal electroshock (MES) seizure test; assay type: in vivo; details: Mus musculus, ip; for responders at 100 mg/kg: 0.5 h, i.p.; for ED50: at TPE (0.5 h; LTG 1.0 h), 95% confidence intervals in parentheses
[7] = read-out: MES test, number of mice protected / number of mice tested (converted)

T1 sequence (P22002 whole entry): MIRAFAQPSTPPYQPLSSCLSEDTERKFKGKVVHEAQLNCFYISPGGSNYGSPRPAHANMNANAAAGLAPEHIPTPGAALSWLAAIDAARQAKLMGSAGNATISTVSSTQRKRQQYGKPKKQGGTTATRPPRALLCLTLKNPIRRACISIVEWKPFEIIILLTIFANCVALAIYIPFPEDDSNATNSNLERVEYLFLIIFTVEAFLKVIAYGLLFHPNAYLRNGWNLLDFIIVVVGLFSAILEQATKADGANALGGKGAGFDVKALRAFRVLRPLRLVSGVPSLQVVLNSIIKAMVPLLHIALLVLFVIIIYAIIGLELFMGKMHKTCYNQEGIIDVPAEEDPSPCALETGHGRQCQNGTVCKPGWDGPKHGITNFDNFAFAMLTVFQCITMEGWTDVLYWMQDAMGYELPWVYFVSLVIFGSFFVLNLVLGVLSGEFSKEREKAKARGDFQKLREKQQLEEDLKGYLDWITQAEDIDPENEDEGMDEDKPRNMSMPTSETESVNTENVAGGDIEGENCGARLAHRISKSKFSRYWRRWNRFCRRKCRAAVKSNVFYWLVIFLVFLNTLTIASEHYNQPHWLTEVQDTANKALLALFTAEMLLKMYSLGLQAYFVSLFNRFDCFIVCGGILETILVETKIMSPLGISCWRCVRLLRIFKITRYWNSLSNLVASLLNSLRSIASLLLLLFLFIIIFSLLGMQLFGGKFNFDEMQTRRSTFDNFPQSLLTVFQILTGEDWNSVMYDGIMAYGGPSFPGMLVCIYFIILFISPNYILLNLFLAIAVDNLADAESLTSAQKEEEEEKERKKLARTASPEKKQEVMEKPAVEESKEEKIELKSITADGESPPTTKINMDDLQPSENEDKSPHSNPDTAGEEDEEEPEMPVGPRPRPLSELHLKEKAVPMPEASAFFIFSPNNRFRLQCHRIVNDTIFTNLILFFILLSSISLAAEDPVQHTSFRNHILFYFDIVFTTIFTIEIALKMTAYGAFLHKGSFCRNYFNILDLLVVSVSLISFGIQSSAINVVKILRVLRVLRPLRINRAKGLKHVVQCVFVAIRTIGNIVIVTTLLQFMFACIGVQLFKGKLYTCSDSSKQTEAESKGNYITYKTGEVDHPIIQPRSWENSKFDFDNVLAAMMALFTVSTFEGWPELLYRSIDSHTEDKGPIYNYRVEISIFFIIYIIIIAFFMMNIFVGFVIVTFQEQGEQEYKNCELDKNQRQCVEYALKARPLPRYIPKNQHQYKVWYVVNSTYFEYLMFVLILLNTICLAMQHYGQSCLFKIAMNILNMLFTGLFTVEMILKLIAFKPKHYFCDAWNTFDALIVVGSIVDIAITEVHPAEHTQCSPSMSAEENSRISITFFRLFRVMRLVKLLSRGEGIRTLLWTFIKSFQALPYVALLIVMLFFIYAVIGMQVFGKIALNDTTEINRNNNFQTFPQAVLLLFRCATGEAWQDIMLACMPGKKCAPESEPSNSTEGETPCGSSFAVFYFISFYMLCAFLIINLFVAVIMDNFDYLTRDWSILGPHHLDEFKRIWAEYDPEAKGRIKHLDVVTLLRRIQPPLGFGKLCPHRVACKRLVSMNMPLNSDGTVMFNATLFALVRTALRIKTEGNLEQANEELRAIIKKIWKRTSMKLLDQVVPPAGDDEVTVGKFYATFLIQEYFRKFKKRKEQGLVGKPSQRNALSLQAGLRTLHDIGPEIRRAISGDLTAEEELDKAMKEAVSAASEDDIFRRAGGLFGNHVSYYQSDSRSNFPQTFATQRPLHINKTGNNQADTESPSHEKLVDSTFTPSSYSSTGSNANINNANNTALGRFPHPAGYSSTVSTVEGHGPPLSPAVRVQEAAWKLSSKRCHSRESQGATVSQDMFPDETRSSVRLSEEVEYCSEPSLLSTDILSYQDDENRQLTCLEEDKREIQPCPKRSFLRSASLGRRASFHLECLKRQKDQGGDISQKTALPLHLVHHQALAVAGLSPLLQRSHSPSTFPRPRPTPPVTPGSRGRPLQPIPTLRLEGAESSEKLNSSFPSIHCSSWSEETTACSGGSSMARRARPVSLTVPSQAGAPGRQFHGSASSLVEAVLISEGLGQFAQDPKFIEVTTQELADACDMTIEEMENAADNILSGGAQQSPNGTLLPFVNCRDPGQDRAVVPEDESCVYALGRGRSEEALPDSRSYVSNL
T1 sequence (P54287 whole entry partner): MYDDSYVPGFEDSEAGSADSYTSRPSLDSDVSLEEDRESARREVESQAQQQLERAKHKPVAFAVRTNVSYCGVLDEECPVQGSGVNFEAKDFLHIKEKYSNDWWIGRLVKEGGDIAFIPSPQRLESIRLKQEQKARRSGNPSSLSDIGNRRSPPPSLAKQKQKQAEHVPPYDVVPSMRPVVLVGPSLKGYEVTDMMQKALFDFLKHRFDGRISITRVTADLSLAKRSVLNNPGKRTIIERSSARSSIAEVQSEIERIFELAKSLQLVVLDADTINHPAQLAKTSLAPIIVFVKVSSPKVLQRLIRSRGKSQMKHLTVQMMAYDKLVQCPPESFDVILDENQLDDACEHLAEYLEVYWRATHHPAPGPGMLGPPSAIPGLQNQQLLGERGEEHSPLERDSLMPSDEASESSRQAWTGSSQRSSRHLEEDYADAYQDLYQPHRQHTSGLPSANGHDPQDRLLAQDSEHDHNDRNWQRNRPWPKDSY
T1 sequence (P54290 25-944 partner limits assumed): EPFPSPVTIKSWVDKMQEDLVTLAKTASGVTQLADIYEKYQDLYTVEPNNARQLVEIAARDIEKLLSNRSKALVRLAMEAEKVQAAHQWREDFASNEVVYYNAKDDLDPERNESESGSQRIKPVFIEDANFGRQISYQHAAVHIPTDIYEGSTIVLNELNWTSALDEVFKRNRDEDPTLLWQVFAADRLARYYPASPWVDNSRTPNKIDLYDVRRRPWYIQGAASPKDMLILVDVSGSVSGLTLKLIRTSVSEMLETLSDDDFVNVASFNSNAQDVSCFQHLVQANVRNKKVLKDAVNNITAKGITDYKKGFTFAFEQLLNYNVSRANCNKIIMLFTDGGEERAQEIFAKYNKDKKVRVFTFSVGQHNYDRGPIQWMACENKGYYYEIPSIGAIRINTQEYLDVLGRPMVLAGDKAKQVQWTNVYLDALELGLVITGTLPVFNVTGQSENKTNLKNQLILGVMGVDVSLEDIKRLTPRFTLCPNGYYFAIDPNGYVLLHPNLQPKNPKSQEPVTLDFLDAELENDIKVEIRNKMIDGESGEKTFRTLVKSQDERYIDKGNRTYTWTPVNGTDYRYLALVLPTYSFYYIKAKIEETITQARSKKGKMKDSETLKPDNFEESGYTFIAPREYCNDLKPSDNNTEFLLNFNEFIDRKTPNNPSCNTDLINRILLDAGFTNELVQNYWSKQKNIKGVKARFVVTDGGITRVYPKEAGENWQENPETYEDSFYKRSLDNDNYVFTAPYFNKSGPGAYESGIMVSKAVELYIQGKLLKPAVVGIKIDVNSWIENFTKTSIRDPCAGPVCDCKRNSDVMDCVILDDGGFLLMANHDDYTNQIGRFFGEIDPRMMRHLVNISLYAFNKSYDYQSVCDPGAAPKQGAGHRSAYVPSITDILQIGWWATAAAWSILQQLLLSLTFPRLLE
T1 sequence (P54290 945-1091 partner limits assumed): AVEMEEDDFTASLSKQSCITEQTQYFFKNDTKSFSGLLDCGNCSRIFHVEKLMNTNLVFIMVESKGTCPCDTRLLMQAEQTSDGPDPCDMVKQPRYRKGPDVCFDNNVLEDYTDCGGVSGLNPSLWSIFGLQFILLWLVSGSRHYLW
T2 sequence (P14867 28-456): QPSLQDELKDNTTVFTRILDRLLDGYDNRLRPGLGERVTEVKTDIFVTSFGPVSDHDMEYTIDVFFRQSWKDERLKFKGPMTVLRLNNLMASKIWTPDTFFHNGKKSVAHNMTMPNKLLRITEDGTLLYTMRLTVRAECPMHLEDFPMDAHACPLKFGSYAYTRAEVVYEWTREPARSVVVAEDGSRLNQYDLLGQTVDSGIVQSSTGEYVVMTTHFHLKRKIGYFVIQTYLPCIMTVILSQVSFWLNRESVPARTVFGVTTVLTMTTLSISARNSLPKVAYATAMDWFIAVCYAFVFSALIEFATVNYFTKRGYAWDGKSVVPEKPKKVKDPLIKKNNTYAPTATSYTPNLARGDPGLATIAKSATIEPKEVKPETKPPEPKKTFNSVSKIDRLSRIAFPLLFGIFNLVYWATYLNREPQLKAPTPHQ
T2 sequence (P47870 25-512 limits assumed): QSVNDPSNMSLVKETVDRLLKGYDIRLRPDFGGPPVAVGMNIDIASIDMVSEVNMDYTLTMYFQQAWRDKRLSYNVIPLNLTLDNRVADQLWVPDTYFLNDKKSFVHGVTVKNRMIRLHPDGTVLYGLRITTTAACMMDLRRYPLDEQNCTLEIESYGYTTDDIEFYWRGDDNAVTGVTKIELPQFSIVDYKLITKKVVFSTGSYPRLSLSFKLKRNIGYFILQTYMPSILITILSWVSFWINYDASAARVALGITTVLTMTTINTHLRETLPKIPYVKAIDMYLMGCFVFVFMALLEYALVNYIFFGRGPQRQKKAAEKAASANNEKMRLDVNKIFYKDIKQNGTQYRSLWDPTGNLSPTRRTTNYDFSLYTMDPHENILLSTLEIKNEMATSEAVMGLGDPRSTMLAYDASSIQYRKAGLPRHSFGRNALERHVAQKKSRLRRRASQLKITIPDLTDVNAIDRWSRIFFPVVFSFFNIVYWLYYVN
T2 sequence (P18507 40-475 partner): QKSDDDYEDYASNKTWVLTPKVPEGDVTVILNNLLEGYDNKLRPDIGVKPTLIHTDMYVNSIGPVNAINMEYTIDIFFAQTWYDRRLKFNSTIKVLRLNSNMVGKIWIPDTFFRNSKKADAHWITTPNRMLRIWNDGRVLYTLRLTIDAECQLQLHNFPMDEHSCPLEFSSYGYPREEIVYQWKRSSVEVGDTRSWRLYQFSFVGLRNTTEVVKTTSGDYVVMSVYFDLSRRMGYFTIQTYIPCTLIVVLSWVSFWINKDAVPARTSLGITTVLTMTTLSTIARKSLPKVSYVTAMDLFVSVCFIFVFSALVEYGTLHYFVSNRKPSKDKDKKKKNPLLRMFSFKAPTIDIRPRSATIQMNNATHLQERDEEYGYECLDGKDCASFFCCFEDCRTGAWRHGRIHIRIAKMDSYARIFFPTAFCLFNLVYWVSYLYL

O=C(NCCc1cccc(OC(F)(F)F)c1)C(c1ccccc1)N1C(=O)CCC1=O (stereo not shown) [Compound 30, 2-(2,5-Dioxopyrrolidin-1-yl)-2-phenyl-N-(3-(trifluoromethoxy)phenethyl)acetamide]
% Inhibition of Control Specific Binding, Na+ Channel (Site 2) (Antagonist Radioligand) (Na+ channel (site 2)): 15.8%
binding to voltage-gated calcium channels Cav1.2 (Cav1.2 channel; concentration of 10 µM): moderate binding
inhibition (Cav1.2 channel): 47.6%
melting point: 113.3 to 114.2 °C
Rotarod test, number of mice / number of mice tested [1]: 0/4
TD50 at 0.5 h [2]: 162 mg/kg
responders at 100 mg/kg [3]: 75%
ED50 ([3]; at TPE (0.5 h; LTG 1.0 h), 95% confidence intervals in parentheses): 39.5 mg/kg
ED50 ([4]; Mus musculus, ip, i.p. 30 min before test): 35.3 mg/kg
effect on CYP2C9 activity (CYP2C9): blocked its activity
inhibition [5]: 0.3%
Papp [6]: 13.2 ± 1.5 ×10⁻⁶ cm/s
responders at 100 mg/kg (MES seizures, mice; groups of four, read-out: protection in the MES test): 100%
responders at 100 mg/kg (MES seizures, mice; [7]): 100%
ED50 (MES seizures, mice): 45.6 mg/kg

O=C(Nc1ccccc1F)C(c1ccccc1)N1C(=O)CCC1=O (stereo not shown) [Compound 4, 2-(2,5-Dioxopyrrolidin-1-yl)-N-(2-fluorophenyl)-2-phenylacetamide]
% Inhibition of Control Specific Binding, Na+ Channel (Site 2) (Antagonist Radioligand) (Na+ channel (site 2)): 23.5%
inhibition (Cav1.2 channel): 5%
melting point: 106.6 to 107.1 °C
impairment of motor coordination of mice ([1]; doses as high as 300 mg/kg): did not impair motor coordination
Rotarod test, number of mice / number of mice tested [1]: 0/4
TD50 at 0.5 h [2]: > 300 mg/kg
responders at 100 mg/kg [3]: 25%
attenuation of nociceptive response in capsaicin-induced pain ([4]; i.p., 120 mg/kg): 37.9%
effect on CYP2C9 activity (CYP2C9): blocked its activity
inhibition [5]: 2.8%
Papp [6]: 11.2 ± 0.7 ×10⁻⁶ cm/s
responders at 100 mg/kg (MES seizures, mice; [7]): 100%
ED50 (MES seizures, mice): 73.2 mg/kg
